Counter-ions that a name gives are not always drawn.
Tests used:
Assay type in all cases: biochemical
[1] = target: phosphodiesterase isolated from rat brain; assay: phosphodiesterase inhibition, enzyme isolated from rat brain; settings: inhibitor concentration giving 50% decrease of enzyme activity, 20 minutes incubation, read-out: 150(μmoles) rat brain
Procedure: (§1) The model experiments were performed by means of phosphodiesterase isolated from animal tissues (rat brain, cattle brain, cattle heart). […] From the test compounds a 1 mmole stock solution was prepared with aqueous hydrochloric acid solution and different amounts of the stock solution were added to the enzyme preparates corresponding to 5×10^-6, 1×10^-5 and 5×10^-5 mole/lit. of the test compound. A solution of papaverine used as reference compound is added to the enzyme preparate in an analogous manner.
(§2) The activity of the solutions of the test compound and papaverine was expressed in percents of the control (enzyme solution without any inhibitory substance, 100%).
(§3) The tests on an enzyme isolated from cattle brain and cattle heart, respectively were carried out in an analogous way.

[2] = target: phosphodiesterase isolated from cattle heart; assay: phosphodiesterase inhibition, enzyme isolated from cattle heart; settings: inhibitor concentration giving 50% decrease of enzyme activity, 20 minutes incubation, read-out: 150(μmoles) cattle heart
Procedure: as §1, §2, §3

[3] = target: phosphodiesterase isolated from cattle brain; assay: phosphodiesterase inhibition, enzyme isolated from cattle brain; settings: inhibitor concentration giving 50% decrease of enzyme activity, 20 minutes incubation, read-out: 150(μmoles) cattle brain
Procedure: as §1, §2, §3

Structure (SMILES)	IC50 [1]	IC50 [2]	IC50 [3]
CCC12C=CCN3CCc4c(n(c5cccc([N+](=O)[O-])c45)C(COC(C)=O)=C1)C32 (centres unmarked) [compound 886, 9-Nitro-17,18-dehydroapovincaminol acetate]	50 µM		
CCC12C=CCN3CCc4c(n(c5cc([N+](=O)[O-])ccc45)C(COC(C)=O)=C1)C32 (centres unmarked) [compound 887, 11-nitro-17,18-dehydro-apovincaminol acetate]	30 µM		
CCC12C=CCN3CCc4c(n(c5cccc([N+](=O)[O-])c45)C(COC(=O)c4cc(OC)c(OC)c(OC)c4)=C1)C32 (centres unmarked) [compound 888, 9-Nitro-17,18-dehydroapovincaminol 3',4',5'-trimethoxybenzoate]	30 µM	5 µM	10 µM
CCC12C=CCN3CCc4c(n(c5cc([N+](=O)[O-])ccc45)C(COC(=O)c4cc(OC)c(OC)c(OC)c4)=C1)C32 (centres unmarked) [compound 889, 11-nitro-17,18-dehydro-apovincaminol 3',4',5'-tri-methoxybenzoate]	10 µM	2 µM	5 µM
CCC12C=C(COC(C)=O)n3c4c(c5ccccc53)CCN(CC(OC(C)=O)C1)C42 (stereo not drawn) [compound 956, 18β-Acetoxy-apovincaminol acetate]	30 µM	25 µM	30 µM
CCC12C=C(COC(C)=O)n3c4c(c5ccccc53)CCN(CC(O)C1)C42 (stereo not drawn) [compound 1041, 18β-Hydroxy-apovincaminol acetate]	120 µM	60 µM	100 µM
CCC12C=C(COC(=O)c3cc(OC)c(OC)c(OC)c3)n3c4c(c5ccccc53)CCN(CC(O)C1)C42 (stereo not drawn) [compound 1079, 18β-Hydroxy-apovincaminol 3',4',5'-trimethoxybenzoate]	5 µM	2 µM	5 µM
COc1ccc(Cc2nccc3cc(OC)c(OC)cc23)cc1OC [papaverin hydrochloride, reference compound]	120 µM	50 µM	100 µM
